Measured values: US8343983B2, “Substituted pyrazolo-pyrimidine compounds” (ArQule, Inc., priority 2009, dated 2013)
Read-outs that look alike come from different tables or passages of the source.

Test system: cancer cells
Test: MTS assay: inhibition of cell growth (formazan absorbance at 492 nm after 72 hours with test compound)
Assay type: cell-based
Details: inhibition class
Procedure: Cells were maintained at 37° C., 5% CO2 in DMEM media supplemented with 1% fetal bovine serum, penicillin/streptomycin and fungizone (Invitrogen). Cells were seeded into 96-well tissue culture plates at 3000 per well and cultured at 37° C. for 18 hours. Test compounds were dissolved and diluted to 300× in DMSO then diluted 1:40 in DMEM. Cells were incubated with test compounds for 72 hours followed by incubation with tetrazolium compound (3-(4,5-dimethylthiazol-2-yl)-5-(3-carboxymethoxyphenyl)-2-(4-sulfophenyl)-2H-tetrazolium, inner salt; MTS) and the electron coupling reagent, phenazine methosulfate (PMS) for 4 hours. […] The ability of compounds to inhibit cell growth in this assay is correlated with the reduction of dehydrogenase enzyme activity found in metabolically active cells. The measurement of the absorbance of the formazan was assessed using an ENVISION™ (Perkin Elmer) microplate reader at 492 nm. The calculated IC50 value is the concentration of the test compound that causes a 50% decrease in the absorbance. […] A=>79% inhibition, B=>50 to 79% inhibition, C=<50% inhibition.

[1] = Homo sapiens, DLD-1 cells, read-out: DLD-1, MTS 72 hours at 10 uM
[2] = Homo sapiens, KATO III cells, read-out: KATO III, MTS 72 hours at 10 uM
[3] = Homo sapiens, MDA-MB-231 cells, read-out: MDA-MB-231, MTS 72 hours at 10 uM
[4] = Homo sapiens, NCI-H1299 cells, read-out: NCI-H1299, MTS 72 hours at 10 uM
[5] = Homo sapiens, PC-3 cells, read-out: PC-3, MTS 72 hours at 10 uM
[6] = PACA-2 cells, read-out: PACA-2, MTS 72 hours at 10 uM

CSc1nc2c3c(n[nH]c3n1)CCN2Cc1ccccc1 [Compound 1, 6-benzyl-4-(methylthio)-2,6,7,8-tetrahydro-1,2,3,5,6-pentaazaacenaphthylene] was tested, and the inhibition at 10 µM [1] was under 50%, the inhibition at 10 µM [2] was under 50% and the inhibition at 10 µM [3] was under 50%. For the same compound, the inhibition at 10 µM [4] was under 50%, the inhibition at 10 µM [5] was under 50% and the inhibition at 10 µM [6] was under 50%.

CS(=O)(=O)c1nc2c3c(n[nH]c3n1)CCN2Cc1ccccc1 [Compound 2, 6-benzyl-4-(methylsulfonyl)-2,6,7,8-tetrahydro-1,2,3,5,6-pentaazaacenaphthylene] showed an inhibition at 10 µM [1] of under 50%, an inhibition at 10 µM [2] of under 50% and an inhibition at 10 µM [3] of under 50%. The inhibition at 10 µM [4] was under 50%, the inhibition at 10 µM [5] was under 50% and the inhibition at 10 µM [6] was under 50%.

With FC(F)(F)c1ccnc(N2CCN(c3nc4c5c(n[nH]c5n3)CCN4Cc3ccccc3)CC2)n1 [Compound 4, 6-benzyl-4-{4-[4-(trifluoromethyl)pyrimidin-2-yl]piperazin-1-yl}-2,6,7,8-tetrahydro-1,2,3,5,6-pentaazaacenaphthylene] the inhibition at 10 µM [1] was 50 to 79%, the inhibition at 10 µM [2] was under 50% and the inhibition at 10 µM [3] was over 79%. The inhibition at 10 µM [4] was over 79%, the inhibition at 10 µM [5] was over 79% and the inhibition at 10 µM [6] was under 50%.

Fc1ccccc1CN1CCN(c2nc3c4c(n[nH]c4n2)CCN3Cc2ccccc2)CC1 [Compound 5, 6-benzyl-4-[4-(2-fluorobenzyl)piperazin-1-yl]-2,6,7,8-tetrahydro-1,2,3,5,6-pentaazaacenaphthylene] showed an inhibition at 10 µM [1] of under 50%, an inhibition at 10 µM [2] of 50 to 79% and an inhibition at 10 µM [3] of over 79%. The inhibition at 10 µM [4] was under 50%, the inhibition at 10 µM [5] was over 79% and the inhibition at 10 µM [6] was under 50%.

With CN(Cc1cccc2ccccc12)c1nc2c3c(n[nH]c3n1)CCN2Cc1ccccc1 [Compound 6, 6-benzyl-N-methyl-N-(1-naphthylmethyl)-2,6,7,8-tetrahydro-1,2,3,5,6-pentaazaacenaphthylen-4-amine] the inhibition at 10 µM [1] was under 50%, the inhibition at 10 µM [2] was under 50% and the inhibition at 10 µM [3] was under 50%. The inhibition at 10 µM [4] was under 50%, the inhibition at 10 µM [5] was under 50% and the inhibition at 10 µM [6] was under 50%.

c1ccc(CN2CCc3n[nH]c4nc(NCc5cccc6ccccc56)nc2c34)cc1 [Compound 7, 6-benzyl-N-(1-naphthylmethyl)-2,6,7,8-tetrahydro-1,2,3,5,6-pentaazaacenaphthylen-4-amine] gave an inhibition at 10 µM [1] of under 50%, an inhibition at 10 µM [2] of over 79% and an inhibition at 10 µM [3] of over 79%. For the same compound, the inhibition at 10 µM [4] was under 50%, the inhibition at 10 µM [5] was over 79% and the inhibition at 10 µM [6] was under 50%.

N#Cc1cccnc1N1CCN(c2nc3c4c(n[nH]c4n2)CCN3Cc2ccccc2)CC1 [Compound 8, 2-[4-(6-benzyl-2,6,7,8-tetrahydro-1,2,3,5,6-pentaazaacenaphthylen-4-yl)piperazin-1-yl]nicotinonitrile] gave an inhibition at 10 µM [1] of under 50%, an inhibition at 10 µM [2] of under 50% and an inhibition at 10 µM [3] of under 50%. It also gave an inhibition at 10 µM [4] of under 50%, an inhibition at 10 µM [5] of under 50% and an inhibition at 10 µM [6] of under 50%.

In the case of COc1cccc(N2CCN(c3nc4c5c(n[nH]c5n3)CCN4Cc3ccccc3)CC2)c1 [Compound 9, 6-benzyl-4-[4-(3-methoxyphenyl)piperazin-1-yl]-2,6,7,8-tetrahydro-1,2,3,5,6-pentaazaacenaphthylene], the inhibition at 10 µM [1] is reported as under 50%, the inhibition at 10 µM [2] is reported as under 50% and the inhibition at 10 µM [3] is reported as over 79%. For the same compound, the inhibition at 10 µM [4] was under 50%, the inhibition at 10 µM [5] was over 79% and the inhibition at 10 µM [6] was under 50%.

Work on c1ccc(CN2CCc3n[nH]c4nc(NCc5cccnc5)nc2c34)cc1 [Compound 10, 6-benzyl-N-(pyridin-3-ylmethyl)-2,6,7,8-tetrahydro-1,2,3,5,6-pentaazaacenaphthylen-4-amine] yielded an inhibition at 10 µM [1] of under 50%, an inhibition at 10 µM [2] of under 50% and an inhibition at 10 µM [3] of under 50%. For the same compound, the inhibition at 10 µM [4] was under 50%, the inhibition at 10 µM [5] was under 50% and the inhibition at 10 µM [6] was under 50%.

COc1cc(CCNc2nc3c4c(n[nH]c4n2)CCN3Cc2ccccc2)cc(OC)c1 [Compound 11, 6-benzyl-N-[2-(3,5-dimethoxyphenyl)ethyl]-2,6,7,8-tetrahydro-1,2,3,5,6-pentaazaacenaphthylen-4-amine] showed an inhibition at 10 µM [1] of 50 to 79%, an inhibition at 10 µM [2] of over 79% and an inhibition at 10 µM [3] of under 50%. For the same compound, the inhibition at 10 µM [4] was over 79%, the inhibition at 10 µM [5] was under 50% and the inhibition at 10 µM [6] was 50 to 79%.

Compound Clc1cccc(CCNc2nc3c4c(n[nH]c4n2)CCN3Cc2ccccc2)c1 [Compound 12, 6-benzyl-N-[2-(3-chlorophenyl)ethyl]-2,6,7,8-tetrahydro-1,2,3,5,6-pentaazaacenaphthylen-4-amine] has an inhibition at 10 µM [1] of 50 to 79%, an inhibition at 10 µM [2] of 50 to 79% and an inhibition at 10 µM [3] of under 50%. For the same compound, the inhibition at 10 µM [4] was 50 to 79%, the inhibition at 10 µM [5] was under 50% and the inhibition at 10 µM [6] was under 50%.

In the case of c1ccc(CN2CCc3n[nH]c4nc(N5CCN(c6ncccn6)CC5)nc2c34)cc1 [Compound 13, 6-benzyl-4-(4-pyrimidin-2-ylpiperazin-1-yl)-2,6,7,8-tetrahydro-1,2,3,5,6-pentaazaacenaphthylene], the inhibition at 10 µM [1] is reported as under 50%, the inhibition at 10 µM [2] is reported as under 50% and the inhibition at 10 µM [3] is reported as under 50%. It also gave an inhibition at 10 µM [4] of under 50%, an inhibition at 10 µM [5] of under 50% and an inhibition at 10 µM [6] of under 50%.

COc1ccc(CCN(C)c2nc3c4c(n[nH]c4n2)CCN3Cc2ccccc2)cc1OC [Compound 14, 6-benzyl-N-[2-(3,4-dimethoxyphenyl)ethyl]-N-methyl-2,6,7,8-tetrahydro-1,2,3,5,6-pentaazaacenaphthylen-4-amine] gave an inhibition at 10 µM [1] of under 50%, an inhibition at 10 µM [2] of under 50% and an inhibition at 10 µM [3] of under 50%. For the same compound, the inhibition at 10 µM [4] was under 50%, the inhibition at 10 µM [5] was under 50% and the inhibition at 10 µM [6] was under 50%.

c1ccc(CN2CCc3n[nH]c4nc(N5CCN(Cc6ccc7c(c6)OCO7)CC5)nc2c34)cc1 [Compound 15, 4-[4-(1,3-benzodioxol-5-ylmethyl)piperazin-1-yl]-6-benzyl-2,6,7,8-tetrahydro-1,2,3,5,6-pentaazaacenaphthylene] gave an inhibition at 10 µM [1] of under 50%, an inhibition at 10 µM [2] of under 50% and an inhibition at 10 µM [3] of under 50%. For the same compound, the inhibition at 10 µM [4] was under 50%, the inhibition at 10 µM [5] was under 50% and the inhibition at 10 µM [6] was under 50%.

In the case of Clc1cccc(Oc2ccccc2)c1CNc1nc2c3c(n[nH]c3n1)CCN2Cc1ccccc1 [Compound 16, 6-benzyl-N-(2-chloro-6-phenoxybenzyl)-2,6,7,8-tetrahydro-1,2,3,5,6-pentaazaacenaphthylen-4-amine], the inhibition at 10 µM [1] is reported as under 50%, the inhibition at 10 µM [2] is reported as under 50% and the inhibition at 10 µM [3] is reported as under 50%. For the same compound, the inhibition at 10 µM [4] was 50 to 79%, the inhibition at 10 µM [5] was 50 to 79% and the inhibition at 10 µM [6] was under 50%.

For c1ccc(CN2CCc3n[nH]c4nc(NC5Cc6ccccc6C5)nc2c34)cc1 [Compound 17, 6-benzyl-N-(2,3-dihydro-1H-inden-2-yl)-2,6,7,8-tetrahydro-1,2,3,5,6-pentaazaacenaphthylen-4-amine], the inhibition at 10 µM [1] was 50 to 79%, the inhibition at 10 µM [2] was 50 to 79% and the inhibition at 10 µM [3] was under 50%. The inhibition at 10 µM [4] was 50 to 79%, the inhibition at 10 µM [5] was under 50% and the inhibition at 10 µM [6] was 50 to 79%.

With COC[C@H](C)Nc1nc2c3c(n[nH]c3n1)CCN2Cc1ccccc1 [Compound 18, 6-benzyl-N-[(1S)-2-methoxy-1-methylethyl]-2,6,7,8-tetrahydro-1,2,3,5,6-pentaazaacenaphthylen-4-amine] the inhibition at 10 µM [1] was under 50%, the inhibition at 10 µM [2] was under 50% and the inhibition at 10 µM [3] was under 50%. The inhibition at 10 µM [4] was under 50%, the inhibition at 10 µM [5] was under 50% and the inhibition at 10 µM [6] was under 50%.
